From patent publication US12404304B1, “Telomerase reverse transcriptase (TERT) expression enhancing compounds and methods for using the same” (Sierra Sciences, LLC, priority 2007, dated 2025)
Where two headings read alike, the source gives them in different places.

Columns and labels:
viable cells in culture = assay: Cell viability assay (CellTiter-Glo Luminescent Cell Viability Assay, ATP quantitation, percent of vehicle control)
[1] = test system: human TERT expression (hTERT mRNA); assay: Quantitative real-time RT-PCR of hTERT mRNA expression (Ct, transcripts) in compound-treated cells; type: cell-based
Procedure, shortened: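 Read-out is cycle threshold, the cycle at which probe fluorescence released by Taq 5′-nuclease activity crosses a set level; Ct falls as hTERT mRNA rises. cDNA of treated and untreated cells was compared, with starting transcripts quantified against a known-cDNA standard curve.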

SMILES	Average Cell Viability after 24 Hours (% DMSO) (viable cells in culture)	Average Number of hTERT Transcripts [1]	Average Number of hTERT Transcripts ([1]; quantitative real-time RT-PCR)
O=C(OCc1cc(=O)n2nc(C3CC3)sc2n1)c1ccc(NC(=O)c2ccco2)cc1 [compound 1452]	81.09	7.45	–
O=C(O)CCc1ccc(-c2ccc(Cl)cc2)o1 [compound 1467]	79.50	108.02	–
COc1ccc(C(=O)NC(=S)Nc2ccc(Nc3ccccc3)cc2)cc1Br [compound 1417]	92.17	5.13	–
CS(=O)(=O)N1CCN(c2ccc(NC(=O)c3cccc(OCc4ccccc4)c3)cc2)CC1 [compound 1534]	90.05	3.18	–
Cc1nnc(SCC2=NN(c3nc4ccccc4[nH]3)C(=O)C2)s1 [compound 1118]	73.41	–	54.45
Cc1cc(C(=O)N/N=C/c2cc(Br)ccc2O)c(C)o1 [compound 1280]	59.52	–	9.80
C=CCN1C(C(=O)c2ccccc2)=C(OC(=O)c2ccc(Cl)cc2)c2ccccc2S1(=O)=O [compound 1209]	91.26	–	21.73
COC(=O)COc1ccc(NC(=O)c2ccc(F)cc2)cc1 [compound 1414]	69.42	203.88	–
CCCN1C(C(=O)c2ccccc2)=C(OC(=O)CC)c2ccccc2S1(=O)=O [compound 1213]	69.85	–	5.90
COc1cc(C(=O)Nc2ccc(-c3nc4ccccc4[nH]3)cc2)ccc1OC(C)=O [compound 1330]	97.84	–	3.59
CC(C)(C)c1ccc(C(=O)NC(=S)Nc2c(Cl)cc(Cl)cc2Cl)cc1 [compound 1411]	92.66	10.04	–
O=C(N/N=C/c1ccccc1O)c1sc2ccccc2c1Cl [compound 1267]	38.10	–	3.76
CC1=NN(c2ccccc2)C(=O)C1C(=O)c1ccc(Br)cc1 (stereo not shown) [compound 1115]	81.68	–	59.18
CCOC(=O)c1c(NC(=O)CCN2C(=O)c3ccccc3C2=O)sc2c1CCC(C)C2 (stereo not shown) [compound 1543]	82.75	3.71	–
NC(=O)C1CCN(c2nc3c(S(=O)(=O)c4cccc(Cl)c4)nnn3c3ccsc23)CC1 [compound 1261]	85.18	–	40.28
COc1ccc(CCNC(=O)c2cc(-c3cccs3)on2)cc1O [compound 1502]	91.65	28.74	–
CCC(C)NC(=S)Nc1ccc([N+](=O)[O-])cc1 (stereo not shown) [compound 1375]	92.06	11.45	–
CCc1nc2[nH]c3c(c(=O)n2n1)CCC3 [compound 1366]	99.48	–	10.02
O=[N+]([O-])c1ccc(NS(=O)(=O)c2cccc(C(F)(F)F)c2)cc1 [compound 1335]	75.24	–	11.78
O=C(NC(=S)Nc1cc([N+](=O)[O-])ccc1O)c1ccc(Br)o1 [compound 1418]	94.19	42.80	–
O=C(N/N=C/c1ccccc1O)/C(=C\c1cccs1)NC(=O)c1ccccc1 [compound 1293]	89.97	–	37.88
O=[N+]([O-])c1ccc(S(=O)(=O)Nc2cc(Cl)ccc2O)cc1 [compound 1385]	78.86	21.71	–
Oc1c(Br)cc(Br)cc1/C=N/Nc1ccccn1 [compound 1271]	57.70	–	38.63
O=C(O)c1ccc(NC(=S)NC(=O)c2ccccc2I)cc1 [compound 1384]	84.52	7.88	–

SMILES	Average Cell Viability after 24 Hours (% DMSO) (viable cells in culture)	Average Number of hTERT Transcripts [1]	Average Number of hTERT Transcripts ([1]; quantitative real-time RT-PCR)
COc1cc(CCNC(=O)c2cc(-c3cccs3)on2)cc(OC)c1 [compound 1501]	99.31	24.13	–
Oc1cc(-c2ccccc2)nn1-c1nc2ccccc2[nH]1 [compound 1108]	94.50	–	79.20
COc1ccc(OCC(=O)N/N=C/c2cccc3cccnc23)cc1 [compound 1289]	84.79	–	21.50
Cc1ccc(N2CC(C(=O)N3CC(C)CC(C)C3)CC2=O)c(C)c1 (stereo not shown) [compound 1364]	104.57	–	9.06
O=c1c2c([nH]c3c(-c4ccc(Cl)cc4)cnn13)CCC2 [compound 1160]	59.19	–	54.13
Nc1ccc(OCCCc2ccccc2)cc1 [compound 1367]	94.27	–	7.25
O=C(CSc1nnc(-c2ccncc2)o1)N1CCN(c2ccccc2F)CC1 [compound 1488]	86.72	3.19	–
COC(=O)c1ccc(NC(=O)CSc2nnc(CNC(=O)c3ccccc3)n2C)cc1 [compound 1404]	104.14	10.87	–
Oc1c2c(nn1-c1nc3ccccc3[nH]1)CCCC2 [compound 1112]	77.30	–	112.20
Cc1cc(NC(=O)C2c3ccccc3Oc3ccccc32)n(-c2nc(C)c(C)c(=O)[nH]2)n1 [compound 1295]	66.62	–	45.40
CC(/C=C/C(=O)NO)=C\C(C)C(=O)c1ccc(N(C)C)cc1 (stereo not shown) [compound 1472]	82.14	76.60	–
Cc1nn2c(=O)c(Cc3ccccc3)c(C)[nH]c2c1-c1ccc(Cl)cc1 [compound 1145]	63.03	–	76.07
N=c1ccn2c(n1)O[C@@H]1[C@@H](O)[C@H](CO)O[C@@H]12 [compound 1226]	77.96	–	31.01
O=C(Nc1ccc(Cl)c(Cl)c1)Nc1nnc(CSc2ccccc2)s1 [compound 1301]	63.90	–	65.14
O=C(CNC(=O)c1cc(-c2cccs2)on1)c1ccccc1 [compound 1492]	91.36	6.45	–
COC(=O)c1ccc(COC(=O)CCS(=O)(=O)c2ccc(C)cc2)cc1 [compound 1549]	99.71	8.60	–
Cc1occc1C(=O)N/N=C/c1cc(I)cc(I)c1O [compound 1277]	68.53	–	24.11
CCOc1ccc(NC(=O)Nc2cccc(C(C)=O)c2)c([N+](=O)[O-])c1 [compound 1442]	84.87	7.65	–
CC(=O)C1=C(C)NC(SCC(=O)Nc2sc3c(c2C#N)CCCC3)=C(C#N)C1c1ccc(Cl)cc1 (stereo not shown) [compound 1434]	72.00	25.17	–
Cc1ccc(NS(=O)(=O)c2ccc(NC(=O)C(c3ccccc3)c3ccccc3)cc2)cc1C [compound 1433]	75.77	45.43	–
CCC(Nc1ccc(Br)cc1)C(=O)N/N=C/c1c(O)ccc2ccccc12 (stereo not shown) [compound 1281]	56.81	–	8.35
OCCN1CCN(c2ncnc3scc(-c4ccccc4)c23)CC1 [compound 1544]	104.59	3.85	–
Cc1ccn(CCCNC(=O)c2cc(-c3cccs3)on2)n1 [compound 1513]	82.67	102.76	–
